We go through 1 molecule from BindingDB's records for PubMed 15173008 (Wyeth Research).

SMILES strings stand for the structures.

Broadly, the IC50 is the midpoint of a concentration-inhibition curve.

The assay in a line: Inhibition of recombinant PDK1 (unknown origin) using peptide as substrate.

As for `COc1cc2ncc(C#N)c(Nc3ccc(OCc4ccccn4)c(Cl)c3)c2cc1NC(=O)/C=C/CN(C)C`, the IC50 is above 5 µM.
